Results: PubChem BioAssay AID2060610 (Molecular Pharmacology Branch, DTP, NCI, 2025)
Values joined by “and” are separate entries in the source; they are usually repeats but may differ in a detail not shown here. Identical values can stand only once. One block for each molecule: values may come before it.

Test system: 616215-338-R-J1-PDC complex spheroids, viability % test/control
Test: Anticancer human tumor 616215-338-R-J1-PDC patient-derived colon adenocarcinoma cell line growth inhibition [CLK]
Details: for viability, T/C: stronger effect = lower value
Text: A high-throughput screen of multi-cell type tumor spheroids was designed to identify active combinations of […] and targeted small molecules. Complex spheroids include a stromal component modeled by human endothelial cells (HUVEC) and fibroblasts modeled by human mesenchymal stem cells (MSCs). The concentration ranges selected for each drug and investigational agent were based upon clinically achievable concentrations if the clinical Cmax of the agent was known.
Compounds. The drugs and investigational agents: cirtuvivint (SM08502; NSC835563), CC-671 (NSC850746), vemurafenib (NSC761431), tapotoclax (NSC804041), sotorasib (NSC818433), adagrasib (NSC831453), MRTX-1133 (NSC836407), BAY2416964 (NSC825713), copanlisib (NSC816437), inavolisib (NSC800729), abemaciclib (NSC768073), osimertinib (NSC779217), entinostat (NSC756642), eltanexor (KPT-8602, NSC794443), venetoclax (NSC766270), ceralasertib (NSC777638), bortezomib (NSC756655), olaparib (NSC753686), talazoparib (NSC767125), alisertib (NSC759677), peposertib (NSC802822), gemcitabine (NSC613327), 5-fluorouracil (NSC19893), SN-38 (NSC673596), oxaliplatin (NSC266046), paclitaxel (NSC125973), and doxorubicin (NSC123127), were obtained from the National Cancer Institute (NCI) Developmental Therapeutics Program Chemical Repository. The FDA-approved anticancer drug set is available from the Developmental Therapeutics Program at https://dtp.cancer.gov/organization/dscb/obtaining/available plates.htm. […] The stock solutions were prepared in dimethyl sulfoxide (DMSO, Sigma-Aldrich, St. Louis, MO, cat. D2650), except for the platinum complexes which were prepared in saline (Quality Biological, Gaithersburg, MD, cat. 114-055-101), at 800-fold the tested concentration and stored at -70 degrees C prior to their use. All drugs and investigational agents were tested over a range starting from a high concentration at or near the clinical Cmax and decreasing in half-log increments. If the clinical Cmax for an agent had not been determined, the highest concentration tested was 10 microM.
Cell Culture. All cells were maintained in an incubator at 37 degrees C and 5% CO2 with 95% humidity. The PDC lines were cultured according to standard operating procedures established by the NCI PDMR. Briefly, all PDCs were thawed and cultured in Matrigel-coated flasks prepared with a working solution of 1X Ham's F-12 nutrient mix, without supplementation (Invitrogen, Waltham, MA, cat. 11765054), 100 U/mL penicillin-streptomycin (Invitrogen, cat. 15140122), and 2.5% Matrigel (Corning Inc., Corning, NY, cat. 354248) for the first three passages. The 947758-054-R-J2-PDC line was cultured in 6B/Colon 1A media, which includes advanced DMEM/F-12 (Thermo Fisher Scientific, cat. 12634028), 10 mM HEPES (Thermo Fisher Scientific, cat. 15630080), 1X GlutaMAX supplement (Thermo Fisher Scientific, cat. 35050061), 0.1 mg/mL primocin (InvivoGen, cat. ant-pm-2), 10% defined fetal bovine serum, heat inactivated (HyClone Laboratories Inc., cat. SH30070.03HI), 1.25 mM N-Acetyl-L-cysteine (Sigma-Aldrich, cat. A9165), 10 mM nicotinamide (Sigma-Aldrich, cat. N0636), 1X B-27 supplement (Thermo Fisher Scientific, cat. 17504044), 1X N-2 supplement (Thermo Fisher Scientific, cat. 17502048), and 10 microM Y-27632 dihydrochloride (Tocris Bioscience, cat. 1254). The 876862-298-R-J1-PDC was cultured in 6E media, which includes all 6B/Colon 1A media components plus 50% L-WRN conditioned media (ATCC, cat. CRL-3276), 50 ng/mL recombinant human EGF recombinant protein (hEGF; Thermo Fisher Scientific, cat. PHG0311), 10 ng/mL recombinant human fibroblast growth factor 10 (hGFG-10; PeproTech, cat. 100-26), 1 ng/mL recombinant human fibroblast growth factor 2 (hFGF-2; PeproTech, cat. 100-18B), and 1 µM prostaglandin E2 (PGE2; Tocris, cat. 2296). The 227483-062-R1-J1-PDC line was cultured in Panc media, containing all 6E components except hFGF-2, with the addition of 500 nM SB-431542 (Selleckchem, cat. S1067) and 10 nM gastrin (Tocris, cat. 3006). […]
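Note: spheroids exposed to agents for 7 days.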
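Throughout, for viability, T/C: 100% = DMSO vehicle wells.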

- IC50 (curve of compound): > 10000 nM
SMILES: CC(CO)NC(=O)c1cc(-c2ccc(Cl)cc2)nn(-c2cnn(C)c2)c1=O (stereo unspecified)
- viability, T/C (compound 0.0316 µM): 90.7% and 94.5%
- viability, T/C (compound 0.1 µM): 95.2% and 99.6%
- viability, T/C (compound 0.316 µM): 101% and 96%
- viability, T/C (compound 1 µM): 102% and 99.1%
- viability, T/C (compound 3.16 µM): 110% and 95%
- viability, T/C (compound 10 µM): 103% and 106%

- IC50 (curve of compound): 142 nM and 299 nM
SMILES: COc1cccc2c1C(=O)c1c(O)c3c(c(O)c1C2=O)CC(O)(C(=O)CO)CC3OC1CC(N)C(O)C(C)O1 (stereo unspecified)
- viability, T/C (compound 0.0316 µM): 102% and 112%
- viability, T/C (compound 0.1 µM): 45.9% and 64.2%
- viability, T/C (compound 0.316 µM): 40.4% and 49.8%
- viability, T/C (compound 1 µM): 24% and 41.3%
- viability, T/C (compound 3.16 µM): 0.74% and 0.78%
- viability, T/C (compound 10 µM): 0.16% and 0.24%

SMILES: CC(=O)O[C@H]1C(=O)[C@@]2(C)[C@H]([C@H](OC(=O)c3ccccc3)[C@]3(O)C[C@H](OC(=O)[C@H](O)[C@@H](NC(=O)c4ccccc4)c4ccccc4)C(C)=C1C3(C)C)[C@]1(OC(C)=O)CO[C@@H]1C[C@@H]2O + CN1CCN(c2cc(C(=O)Nc3cc4cc(-c5cnn(C)c5)ccc4cn3)ccn2)CC1
- IC50 (curve of first compound, second compound 0.0316 µM): < 31.6 nM
- IC50 (curve of first compound, second compound 0.1 µM): < 31.6 nM
- IC50 (curve of first compound, second compound 0.316 µM): < 31.6 nM
- IC50 (curve of first compound, second compound 1 µM): < 31.6 nM
- IC50 (curve of first compound, second compound 3.16 µM): < 31.6 nM
- IC50 (curve of first compound, second compound 10 µM): < 31.6 nM
- viability, T/C (second compound 0.0316 µM, first compound 0.0316 µM): 31.2%
- viability, T/C (second compound 0.0316 µM, first compound 0.1 µM): 21.8%
- viability, T/C (second compound 0.0316 µM, first compound 0.316 µM): 14.7%
- viability, T/C (second compound 0.0316 µM, first compound 1 µM): 18%
- viability, T/C (second compound 0.0316 µM, first compound 3.16 µM): 18.6%
- viability, T/C (second compound 0.0316 µM, first compound 10 µM): 22.4%
- viability, T/C (second compound 0.1 µM, first compound 0.0316 µM): 31.1%
- viability, T/C (second compound 0.1 µM, first compound 0.1 µM): 17.9%
- viability, T/C (second compound 0.1 µM, first compound 0.316 µM): 19.9%
- viability, T/C (second compound 0.1 µM, first compound 1 µM): 16.4%
- viability, T/C (second compound 0.1 µM, first compound 3.16 µM): 17.4%
- viability, T/C (second compound 0.1 µM, first compound 10 µM): 25.2%
- viability, T/C (second compound 0.316 µM, first compound 0.0316 µM): 21.8%
- viability, T/C (second compound 0.316 µM, first compound 0.1 µM): 18%
- viability, T/C (second compound 0.316 µM, first compound 0.316 µM): 19.3%
- viability, T/C (second compound 0.316 µM, first compound 1 µM): 16.1%
- viability, T/C (second compound 0.316 µM, first compound 3.16 µM): 19.9%
- viability, T/C (second compound 0.316 µM, first compound 10 µM): 20.5%
- viability, T/C (second compound 1 µM, first compound 0.0316 µM): 0.09%
- viability, T/C (second compound 1 µM, first compound 0.1 µM): 0.12%
- viability, T/C (second compound 1 µM, first compound 0.316 µM): 3.34%
- viability, T/C (second compound 1 µM, first compound 1 µM): 0.08%
- viability, T/C (second compound 1 µM, first compound 3.16 µM): 0.1%
- viability, T/C (second compound 1 µM, first compound 10 µM): 3.08%
- viability, T/C (second compound 3.16 µM, first compound 0.0316 µM): 0.05%
- viability, T/C (second compound 3.16 µM, first compound 0.1 µM): 0.11%
- viability, T/C (second compound 3.16 µM, first compound 0.316 µM): 0.13%
- viability, T/C (second compound 3.16 µM, first compound 1 µM): 0.1%
- viability, T/C (second compound 3.16 µM, first compound 3.16 µM): 1.96%
- viability, T/C (second compound 3.16 µM, first compound 10 µM): 2.3%
- viability, T/C (second compound 10 µM, first compound 0.0316 µM): 0.06%
- viability, T/C (second compound 10 µM, first compound 0.1 µM): 0.13%
- viability, T/C (second compound 10 µM, first compound 0.316 µM): 0.17%
- viability, T/C (second compound 10 µM, first compound 1 µM): 0.16%
- viability, T/C (second compound 10 µM, first compound 3.16 µM): 0.19%
- viability, T/C (second compound 10 µM, first compound 10 µM): 1.72%
